Experiments:
[1] = tested on: normal bone marrow mononuclear cells; assay: Viability of primary cultures of normal cells; format: cell-based, human; details: 24 h of exposure at 100, 500, and 1000 nM
Procedure: The efficacy of PF-00477736 was confirmed in primary blast cells from 14 newly diagnosed cases including ten BCR-ABL1-positive (71 %) cases and four BCR-ABL1-negative ALL cases (29 %). Leukemic cells were incubated with increasing concentrations of drug (0.1, 0.5, and 1 μM) for 24 h.
Normal bone marrow progenitors were harvested from bone marrow aspirations performed in lymphoma patients undergoing initial staging procedures, which then resulted negative for lymphoma infiltration. Normal peripheral blood progenitors were harvested from healthy donors.
In order to assess the cell viability after treatment with PF-00477736 (Pfizer), ALL cell lines were seeded in 96-well plates at 50,000 cell/100 μl/well with increasing concentrations of drug (0.005–2 μM) for 24 and 48 h and incubated at 37 °C. Cell viability was assessed by adding WST-1 reagent (Roche Applied Science, Basel, Switzerland) to the culture medium at 1:10 dilution. Cells were incubated at 37 °C, and the optical density was measured by microplate ELISA reader at λ = 450 after 3 h. […] In ex-vivo primary leukemia cells, the effects on cell viability were assessed by counting viable and non-viable cell numbers by the trypan blue dye exclusion method. […] Cellular viability was calculated as a percentage of the viable cells compared to the untreated controls (DMSO 0.1 %).

[2] = tested on: B- and T-ALL cell lines; assay: Annexin V/PI staining of apoptotic cells; format: cell-based, human; details: 0.1, 0.5, 1 μM (0.05, 0.1, 0.2 μM for BV-173 and RPMI-8402), 24 and 48 h; proportional to dose and exposure time
Procedure: In order to assess whether cytotoxicity was correlated to increased susceptibility to apoptosis, B-/T-ALL cell lines were incubated with increasing concentrations of drug (0.1, 0.5, and 1 μM and 0.05, 0.1, and 0.2 μM only for BV-173 and RPMI-8402, respectively) for 24 and 48 h. […] The induction of apoptosis by PF-00477736 was also assessed by the detection of poly (ADP-ribose) polymerase (PARP) cleavage by Western blot analysis.
According to the WST-1 results, three different increasing concentrations of PF-00477736 were used to treat leukemia cells lines in order to detect and discriminate apoptotic, necrotic and dead cells. Cell lines were seeded in 12-well plates at 500,000 cell/1 ml with increasing concentrations of drug (0.1, 0.5 and 1 μM and 0.05, 0.1 and 0.2 μM only for BV-173 and RPMI-8402) for 24 and 48 h and incubated at 37 °C. Following the treatment, cells were harvested and stained with Annexin V/PI according to the manufacturer’s instruction (Roche). The percentage of Annexin V-PI-positive cells was determined within 1 × 10^4 cells of the population by flow cytometry (FACSCanto II, BD Biosciences Pharmingen, San Jose, CA, USA). The mean percentage of Annexin V-PI-positive cells and standard error measurement was calculated from at least two separate experiments.

Which cell viability [1] does the source give for `Cn1cc(-c2[nH]c3cc(NC(=O)[C@H](N)C4CCCCC4)cc4c3c2C=NNC4=O)cn1` [PF-00477736] here?
Its cell viability is “did not reduce viability”.

What about the “apoptosis (Annexin V/PI-positive cells)” value [2] of the same compound?
Its value is “significant increase of apoptosis”.

From article PMC4635624, “In vitro and in vivo single-agent efficacy of checkpoint kinase inhibition in acute lymphoblastic leukemia” (Journal of Hematology & Oncology, 2015)
